From PubChem BioAssay (NCI)
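A five-concentration, 48-hour dose response in 96-well plates underlies each endpoint, interpolated linearly between surrounding concentrations. At the GI50, growth is halved. TGI marks complete inhibition of growth.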

Each molecule was assayed on HL-60(TB) leukemia (assay: growth of human tumour cells (NCI), 48 h).

SMILES | GI50 [µM] | TGI [µM]
Nc1ncc(-c2ccc3ncnc(Nc4ccc(F)c(Cl)c4)c3c2)cn1 | 10.6 | 29.7

What follows are molecules tested on UACC-62 melanoma (assay: growth of human tumour cells (NCI), 48 h).

SMILES | GI50 [µM] | TGI [µM]
O=C(NC[C@H](O)CN1CCc2ccccc2C1)c1cc(NC2COC2)ncn1 | 21.3 | > 100
COc1cc(Cl)cc(-c2nn(-c3cccc(NC(=O)c4ccc(N5CCOCC5)c(C(F)(F)F)c4)c3)cc2-c2ccncc2)c1 | 9.1 | > 100
OC[C@H]1O[C@@H]2O[C@@](COCc3ccccc3)([C@H](OCc3ccccc3)[C@H]2O)[C@@H]1OCc1ccccc1 | – | 27.7
Nc1ncc(-c2ccc3ncnc(Nc4ccc(F)c(Cl)c4)c3c2)cn1 | 4.99 | 39.9

The molecules below were run on SR leukemia (assay: growth of human tumour cells (NCI), 48 h).

SMILES | GI50 [µM] | TGI [µM]
O=C(NC[C@H](O)CN1CCc2ccccc2C1)c1cc(NC2COC2)ncn1 | 9.29 | 50.9
COc1cc(Cl)cc(-c2nn(-c3cccc(NC(=O)c4ccc(N5CCOCC5)c(C(F)(F)F)c4)c3)cc2-c2ccncc2)c1 | 3.06 | > 100
OC[C@H]1O[C@@H]2O[C@@](COCc3ccccc3)([C@H](OCc3ccccc3)[C@H]2O)[C@@H]1OCc1ccccc1 | – | 5.83

What follows are molecules tested on T-47D breast (assay: growth of human tumour cells (NCI), 48 h).

SMILES | GI50 [µM] | TGI [µM]
O=C(NC[C@H](O)CN1CCc2ccccc2C1)c1cc(NC2COC2)ncn1 | 9.26 | > 100
COc1cc(Cl)cc(-c2nn(-c3cccc(NC(=O)c4ccc(N5CCOCC5)c(C(F)(F)F)c4)c3)cc2-c2ccncc2)c1 | 10.4 | > 100
OC[C@H]1O[C@@H]2O[C@@](COCc3ccccc3)([C@H](OCc3ccccc3)[C@H]2O)[C@@H]1OCc1ccccc1 | – | 33
Nc1ncc(-c2ccc3ncnc(Nc4ccc(F)c(Cl)c4)c3c2)cn1 | 0.703 | 3.16

What follows are molecules tested on LOX IMVI melanoma (assay: growth of human tumour cells (NCI), 48 h).

SMILES | GI50 [µM] | TGI [µM]
O=C(NC[C@H](O)CN1CCc2ccccc2C1)c1cc(NC2COC2)ncn1 | 7.21 | 23.3
COc1cc(Cl)cc(-c2nn(-c3cccc(NC(=O)c4ccc(N5CCOCC5)c(C(F)(F)F)c4)c3)cc2-c2ccncc2)c1 | 15.8 | > 100
OC[C@H]1O[C@@H]2O[C@@](COCc3ccccc3)([C@H](OCc3ccccc3)[C@H]2O)[C@@H]1OCc1ccccc1 | – | 32.2
Nc1ncc(-c2ccc3ncnc(Nc4ccc(F)c(Cl)c4)c3c2)cn1 | 2.35 | 10.7

What follows are molecules tested on OVCAR-3 ovarian (assay: growth of human tumour cells (NCI), 48 h).

SMILES | GI50 [µM] | TGI [µM]
O=C(NC[C@H](O)CN1CCc2ccccc2C1)c1cc(NC2COC2)ncn1 | 10.8 | 49.1
COc1cc(Cl)cc(-c2nn(-c3cccc(NC(=O)c4ccc(N5CCOCC5)c(C(F)(F)F)c4)c3)cc2-c2ccncc2)c1 | 53.1 | > 100
OC[C@H]1O[C@@H]2O[C@@](COCc3ccccc3)([C@H](OCc3ccccc3)[C@H]2O)[C@@H]1OCc1ccccc1 | – | 27.7
Nc1ncc(-c2ccc3ncnc(Nc4ccc(F)c(Cl)c4)c3c2)cn1 | 1.2 | 2.57

Each molecule was assayed on OVCAR-8 ovarian (assay: growth of human tumour cells (NCI), 48 h).

SMILES | GI50 [µM] | TGI [µM]
O=C(NC[C@H](O)CN1CCc2ccccc2C1)c1cc(NC2COC2)ncn1 | 20.8 | > 100
COc1cc(Cl)cc(-c2nn(-c3cccc(NC(=O)c4ccc(N5CCOCC5)c(C(F)(F)F)c4)c3)cc2-c2ccncc2)c1 | 6.33 | > 100
OC[C@H]1O[C@@H]2O[C@@](COCc3ccccc3)([C@H](OCc3ccccc3)[C@H]2O)[C@@H]1OCc1ccccc1 | – | 29.1
Nc1ncc(-c2ccc3ncnc(Nc4ccc(F)c(Cl)c4)c3c2)cn1 | 2.96 | 17.5

These molecules were tested on A549 NSCLC (assay: growth of human tumour cells (NCI), 48 h).

SMILES | GI50 [µM] | TGI [µM]
O=C(NC[C@H](O)CN1CCc2ccccc2C1)c1cc(NC2COC2)ncn1 | 39.5 | > 100
COc1cc(Cl)cc(-c2nn(-c3cccc(NC(=O)c4ccc(N5CCOCC5)c(C(F)(F)F)c4)c3)cc2-c2ccncc2)c1 | 9.15 | > 100
OC[C@H]1O[C@@H]2O[C@@](COCc3ccccc3)([C@H](OCc3ccccc3)[C@H]2O)[C@@H]1OCc1ccccc1 | – | 29.3
Nc1ncc(-c2ccc3ncnc(Nc4ccc(F)c(Cl)c4)c3c2)cn1 | 1.95 | 8.25

What follows are molecules tested on K-562 leukemia (assay: growth of human tumour cells (NCI), 48 h).

SMILES | GI50 [µM] | TGI [µM]
O=C(NC[C@H](O)CN1CCc2ccccc2C1)c1cc(NC2COC2)ncn1 | 20.3 | > 100
COc1cc(Cl)cc(-c2nn(-c3cccc(NC(=O)c4ccc(N5CCOCC5)c(C(F)(F)F)c4)c3)cc2-c2ccncc2)c1 | 3.1 | > 100
OC[C@H]1O[C@@H]2O[C@@](COCc3ccccc3)([C@H](OCc3ccccc3)[C@H]2O)[C@@H]1OCc1ccccc1 | – | 25.2
Nc1ncc(-c2ccc3ncnc(Nc4ccc(F)c(Cl)c4)c3c2)cn1 | 3.25 | > 100

What follows are molecules tested on KM12 colon (assay: growth of human tumour cells (NCI), 48 h).

SMILES | GI50 [µM] | TGI [µM]
O=C(NC[C@H](O)CN1CCc2ccccc2C1)c1cc(NC2COC2)ncn1 | 16.2 | > 100
COc1cc(Cl)cc(-c2nn(-c3cccc(NC(=O)c4ccc(N5CCOCC5)c(C(F)(F)F)c4)c3)cc2-c2ccncc2)c1 | 5.38 | > 100
OC[C@H]1O[C@@H]2O[C@@](COCc3ccccc3)([C@H](OCc3ccccc3)[C@H]2O)[C@@H]1OCc1ccccc1 | – | 32.1
Nc1ncc(-c2ccc3ncnc(Nc4ccc(F)c(Cl)c4)c3c2)cn1 | 5.01 | > 100

These molecules were tested on SW-620 colon (assay: growth of human tumour cells (NCI), 48 h).

SMILES | GI50 [µM] | TGI [µM]
O=C(NC[C@H](O)CN1CCc2ccccc2C1)c1cc(NC2COC2)ncn1 | 11 | 61.7
COc1cc(Cl)cc(-c2nn(-c3cccc(NC(=O)c4ccc(N5CCOCC5)c(C(F)(F)F)c4)c3)cc2-c2ccncc2)c1 | 29.8 | > 100
OC[C@H]1O[C@@H]2O[C@@](COCc3ccccc3)([C@H](OCc3ccccc3)[C@H]2O)[C@@H]1OCc1ccccc1 | – | 38.6
Nc1ncc(-c2ccc3ncnc(Nc4ccc(F)c(Cl)c4)c3c2)cn1 | 3.02 | 11.7

These molecules were tested on NCI/ADR-RES ovarian (assay: growth of human tumour cells (NCI), 48 h).

SMILES | GI50 [µM] | TGI [µM]
O=C(NC[C@H](O)CN1CCc2ccccc2C1)c1cc(NC2COC2)ncn1 | 15.9 | 57.9
COc1cc(Cl)cc(-c2nn(-c3cccc(NC(=O)c4ccc(N5CCOCC5)c(C(F)(F)F)c4)c3)cc2-c2ccncc2)c1 | 6.17 | > 100
OC[C@H]1O[C@@H]2O[C@@](COCc3ccccc3)([C@H](OCc3ccccc3)[C@H]2O)[C@@H]1OCc1ccccc1 | – | 36.1
Nc1ncc(-c2ccc3ncnc(Nc4ccc(F)c(Cl)c4)c3c2)cn1 | 3.8 | 46.2

The molecules below were run on HCT-116 colon (assay: growth of human tumour cells (NCI), 48 h).

SMILES | GI50 [µM] | TGI [µM]
O=C(NC[C@H](O)CN1CCc2ccccc2C1)c1cc(NC2COC2)ncn1 | 22.7 | > 100
COc1cc(Cl)cc(-c2nn(-c3cccc(NC(=O)c4ccc(N5CCOCC5)c(C(F)(F)F)c4)c3)cc2-c2ccncc2)c1 | 9.64 | > 100
OC[C@H]1O[C@@H]2O[C@@](COCc3ccccc3)([C@H](OCc3ccccc3)[C@H]2O)[C@@H]1OCc1ccccc1 | – | 30.1
Nc1ncc(-c2ccc3ncnc(Nc4ccc(F)c(Cl)c4)c3c2)cn1 | 1.89 | 3.73

The molecules below were run on HOP-92 NSCLC (assay: growth of human tumour cells (NCI), 48 h).

SMILES | GI50 [µM] | TGI [µM]
O=C(NC[C@H](O)CN1CCc2ccccc2C1)c1cc(NC2COC2)ncn1 | 18.1 | > 100
OC[C@H]1O[C@@H]2O[C@@](COCc3ccccc3)([C@H](OCc3ccccc3)[C@H]2O)[C@@H]1OCc1ccccc1 | – | 28.1
Nc1ncc(-c2ccc3ncnc(Nc4ccc(F)c(Cl)c4)c3c2)cn1 | 1.03 | 3.52

The molecules below were run on MCF7 breast (assay: growth of human tumour cells (NCI), 48 h).

SMILES | GI50 [µM] | TGI [µM]
O=C(NC[C@H](O)CN1CCc2ccccc2C1)c1cc(NC2COC2)ncn1 | 3.93 | > 100
COc1cc(Cl)cc(-c2nn(-c3cccc(NC(=O)c4ccc(N5CCOCC5)c(C(F)(F)F)c4)c3)cc2-c2ccncc2)c1 | 8.71 | > 100
OC[C@H]1O[C@@H]2O[C@@](COCc3ccccc3)([C@H](OCc3ccccc3)[C@H]2O)[C@@H]1OCc1ccccc1 | – | 38.8
Nc1ncc(-c2ccc3ncnc(Nc4ccc(F)c(Cl)c4)c3c2)cn1 | 1.49 | 20.5

Each molecule was assayed on OVCAR-4 ovarian (assay: growth of human tumour cells (NCI), 48 h).

SMILES | GI50 [µM] | TGI [µM]
O=C(NC[C@H](O)CN1CCc2ccccc2C1)c1cc(NC2COC2)ncn1 | 16 | > 100
